Source: US5716797A, “Stable two-part reagent for the measurement of creatine kinase activity” (Wako Pure Chemical Industries, Ltd., priority 1995, dated 1998)
Where two headings read alike, the source gives them in different places.

Target: T1, creatine kinase (CK) in human serum (Homo sapiens, UniProt P06732)
T1 construct: Five fresh human serum samples were used; from tissue; host or cells: fresh human serum
Experiment: Inhibitory effect of oxidized products of SH compounds on CK activity (HK/G6PDH UV method, NAC 26 mM as reactivator)
Assay type: biochemical
Conditions: for CK activity value / CK activity value, Average: 5 mM SH compound oxidized product; for CK activity value: NAC 26 mM, 37° C.; for CK activity value, Average: average of 5 samples; for activity at 5000 µM: read-out: CK activity, relative value
Experimental: Investigation on the inhibitory effect of oxidized products of SH compounds on CK activity
Thus, oxidized products of the SH compounds, respectively, were obtained.
NAC (26 mM) as CK reactivator, each 5 mM of SH compound oxidized product obtained above, 2.6 mM of ADP, 3.9 u/ml of HK (available from Oriental Yeast Co., Ltd.), 8.0 u/ml of G6PDH (available from Oriental Yeast Co., Ltd.), 2.6 mM of NADP, 21 mM of glucose, 10 mM of magnesium acetate, 6.5 mM of AMP, 0.013 mM of APSA, 0.1% (w/v) of sodium azide and 2 mM of EDTA-2Na were dissolved in 128 mM imidazole-acetate buffer (pH 6.7). The thus obtained solutions were adjusted to pH 6.7 with sodium hydroxide to obtain enzyme solutions.
An enzyme solution containing no SH compound oxidized product was prepared as a control standard solution.
Five fresh human serum samples were used.
To 8 μl of each sample was added 320 μl of each enzyme solution, followed by preincubation for 5 minutes. Then, 80 μl of the substrate solution was added to initiate the reaction and the change of absorbance per minute was measured for 3 minutes from 2 minutes after the addition of the substrate solution. The CK activity value was calculated from the molecular extinction coefficient of the NADPH produced.
As a measuring apparatus, an Autoanalyzer Hitachi Model 7150 was used, and the measurement was carried out at 37° C. by use of dual wavelength (λ1 =405 nm, λ2 =340 nm).
Tables 2 and 3 show the CK activity values of the 5 samples in each case and the average thereof.

[1] = average with enzyme solution containing no SH compound oxidized product = 100%, 5 mM oxidized product

T1 sequence (P06732 whole entry): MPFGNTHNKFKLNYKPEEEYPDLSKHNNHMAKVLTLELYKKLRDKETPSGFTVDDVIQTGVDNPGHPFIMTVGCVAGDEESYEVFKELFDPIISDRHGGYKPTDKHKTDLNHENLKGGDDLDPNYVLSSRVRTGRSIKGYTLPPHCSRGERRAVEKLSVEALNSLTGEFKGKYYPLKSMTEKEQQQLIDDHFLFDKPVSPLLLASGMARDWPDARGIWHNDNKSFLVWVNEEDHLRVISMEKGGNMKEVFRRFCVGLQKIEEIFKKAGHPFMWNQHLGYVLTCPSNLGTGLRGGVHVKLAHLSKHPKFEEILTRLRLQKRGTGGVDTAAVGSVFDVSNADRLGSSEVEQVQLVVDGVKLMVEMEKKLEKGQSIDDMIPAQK

Row | inhibition of CK activity by oxidized product (5 mM oxidized product) | CK activity value (Sample 1 (fresh human serum)) | CK activity value (Sample 2) | CK activity value (Sample 3) | CK activity value (Sample 4) | CK activity value (Sample 5) | CK activity value, Average | activity at 5000 µM [1] | Compound | activity at 5000 µM | CK activity, relative value [1]
1 | hardly inhibited CK activity | 150 IU/l. | 407 IU/l. | 108 IU/l. | 319 IU/l. | 99 IU/l. | 216 IU/l. | 95.9% | O[C@@H]1CSSC[C@H]1O (relative stereo) [DTT oxidized product] | – | –
2 | hardly inhibited CK activity | 143 IU/l. | 407 IU/l. | 106 IU/l. | 314 IU/l. | 97 IU/l. | 213 IU/l. | 94.6% | O=c1ccnc(SSc2nccc(=O)[nH]2)[nH]1 [2-Thiouracil oxidized product] | – | –
3 | hardly inhibited CK activity | 155 IU/l. | 418 IU/l. | 114 IU/l. | 335 IU/l. | 98 IU/l. | 224 IU/l. | 99.3% | O=S(=O)(O)CCSSCCS(=O)(=O)O [2MES oxidized product] | – | –
4 | hardly inhibited CK activity | 161 IU/l. | 407 IU/l. | 106 IU/l. | 322 IU/l. | 97 IU/l. | 217 IU/l. | 96% | Nc1cc(O)nc(SSc2nc(N)cc(O)n2)n1 [AHMP oxidized product] | – | –
5 | – | 0 IU/l. | 1 IU/l. | 0 IU/l. | 1 IU/l. | 0 IU/l. | 0 IU/l. | 0.2% | Nc1nc(SSc2nc(N)nc3c2ncn3[C@@H]2O[C@H](CO)[C@@H](O)[C@H]2O)c2ncn([C@@H]3O[C@H](CO)[C@@H](O)[C@H]3O)c2n1 [AMPR oxidized product] | – | –
6 | hardly inhibited CK activity | 136 IU/l. | 388 IU/l. | 102 IU/l. | 302 IU/l. | 90 IU/l. | 204 IU/l. | 90.2% | OC[C@H]1O[C@@H](SS[C@@H]2O[C@H](CO)[C@@H](O)[C@H](O)[C@H]2O)[C@H](O)[C@@H](O)[C@@H]1O [TDG oxidized product] | – | –
7 | hardly inhibited CK activity | 153 IU/l. | 422 IU/l. | 112 IU/l. | 333 IU/l. | 106 IU/l. | 226 IU/l. | 100% | OCC(O)CSSCC(O)CO (centres unmarked) [TG oxidized product] | – | –

Row | Compound | inhibition of CK activity by oxidized product (5 mM oxidized product) | CK activity value (Sample 1 (fresh human serum)) | CK activity value (Sample 2) | CK activity value (Sample 3) | CK activity value (Sample 4) | CK activity value (Sample 5) | CK activity value, Average | activity at 5000 µM [1] | activity at 5000 µM | CK activity, relative value [1]
8 | OCCSSCCO [2ME oxidized product] | hardly inhibited CK activity | 155 IU/l. | 427 IU/l. | 113 IU/l. | 332 IU/l. | 101 IU/l. | 226 IU/l. | – | 100% | –
9 | c1ccc(SSc2ccccc2)cc1 [Thiophenol oxidized product] | – | 73 IU/l. | 180 IU/l. | 55 IU/l. | 139 IU/l. | 50 IU/l. | 99 IU/l. | – | 44.1% | –
10 | Mercapto-succinic acid | – | 122 IU/l. | 330 IU/l. | 98 IU/l. | 285 IU/l. | 80 IU/l. | 183 IU/l. | – | – | 81.0%
